Experimental data from patent US10308667B2, “Oxadiazolopyridine derivatives for use as ghrelin O-acyl transferase (GOAT) inhibitors” (Boehringer Ingelheim International GmbH, priority 2016, dated 2019).

molecular target: human GOAT (Homo sapiens (Human), UniProt Q96T53); test: Determination of hGOAT Activity in HEK293 Cells after Incubation with Test Compound; type: cell-based; conditions: HEK293 cells stably transfected with preproghrelin and human GOAT; octanoate-BSA 100 μM; acyl-ghrelin in medium by ELISA after 5 hours
Sequence (Q96T53 whole entry): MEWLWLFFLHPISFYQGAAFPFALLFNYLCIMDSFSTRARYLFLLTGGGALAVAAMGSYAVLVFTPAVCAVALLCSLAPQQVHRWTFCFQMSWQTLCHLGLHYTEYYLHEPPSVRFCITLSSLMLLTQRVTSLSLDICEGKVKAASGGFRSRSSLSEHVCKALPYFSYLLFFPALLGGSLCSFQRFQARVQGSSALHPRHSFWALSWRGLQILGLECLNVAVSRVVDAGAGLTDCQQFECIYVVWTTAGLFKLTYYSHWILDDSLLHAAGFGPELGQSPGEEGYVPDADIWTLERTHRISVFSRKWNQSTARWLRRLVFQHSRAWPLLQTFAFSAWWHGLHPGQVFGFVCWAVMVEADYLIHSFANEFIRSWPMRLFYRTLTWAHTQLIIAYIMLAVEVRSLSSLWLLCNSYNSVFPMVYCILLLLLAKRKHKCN
Experimental: Determination of hGOAT Activity in HEK293 Cells after Incubation with Test Compound
HEK293 cells stably transfected with two expression vectors, one coding for preproghrelin cDNA and a second for the expression of human GOATcDNA are used as a cellular model. After feeding the cells with octanoic acid for 5 hours, acyl-ghrelin is measured in cell culture medium by an ELISA procedure.
Cellline: Hek293 hGOAT/PPGhrl Clone #1B8Sodium octanoate, Sigma, Cat.-No. C5038
BD Poly-D-Lysin 384-well Plates, black-clear polystyrene BD Bioscience Cat.-No. […] ELISA human acylated Ghrelin Kit purchased from Bertin Pharman (detailed composition of buffers e.g. wash-puffer, ELISA buffer not known)
Cells are plated with a density of 5000 cells/well in 384-well poly-D-lysin plates and incubated for 1 day at 37° C., 5% CO2 in DMEM medium, 10% FCS, 1×NEAA, Puromycin (0.5 μg/ml) and G418 (1 mg/ml). Then the medium is changed to a identical medium without FCS and containing Octanoate-BSA (final concentration 100 μM each) and compound in DMSO (final DMSO concentration 0.3%). After incubation for 5 hours acylghrelin in the medium is measured by ELISA
The medium sample is diluted 1:25 in Elisa buffer, A 25 ul aliquot is transferred to a 384-well ELISA plate previously washed 4 times with 100 μL wash buffer, and 25 μl tracer-solution is added. After incubation overnight (˜20 h) at 4° C. temperature the plate is washed 4 times with 100 μl wash-buffer per well. Finally 50 μl Ellman's reagent is added to each well and the plate is incubated in the dark for 20 minutes. The absorbance is measured at 405 nm in an Envision multilabel reader and the amount of acylated ghrelin is calculated according to a acylated ghrelin standard curve provided in the same plate.
The analysis of the data is performed by calculation of the percentage of acyl-ghrelin produced in the presence of test compound compared to the amount of acyl-ghrelin produced in the vehicle control samples. An inhibitor of the GOAT enzyme will give values between 100% CTL (no inhibition) and 0% CTL (complete inhibition). IC50 values are calculated with Assay Explorer or other suited software based on curve fitting of results of 8 different compound concentrations.

Compound	IC50 [nM]
COc1ccc(Cc2c(C)nc3nonc3c2N)nc1 [Example 1, 6-(5-Methoxy-pyridin-2-ylmethyl)-5-methyl-[1,2,5]oxadiazolo[3,4-b]pyridin-7-ylamine]	1.4
Cc1nc2nonc2c(N)c1Cc1cc(C#N)c(C(F)(F)F)cn1 [Example 2, 2-(7-Amino-5-methyl-[1,2,5]oxadiazolo[3,4-b]pyridin-6-ylmethyl)-5-trifluoromethyl-isonicotinonitrile]	3.6
Cc1nc2nonc2c(N)c1Cc1cccc(Cl)n1 [Example 3, 6-(6-Chloro-pyridin-2-ylmethyl)-5-methyl-[1,2,5]oxadiazolo[3,4-b]pyridin-7-ylamine]	0.46
Cc1nc2nonc2c(N)c1Cc1ccc(C#N)cn1 [Example 4, 6-(7-Amino-5-methyl-[1,2,5]oxadiazolo[3,4-b]pyridin-6-ylmethyl)-nicotinonitrile]	1.7
Cc1nc2nonc2c(N)c1Cc1ccc(C(F)(F)F)cn1 [Example 6, 5-Methyl-6-(5-trifluoromethyl-pyridin-2-ylmethyl)-[1,2,5]oxadiazolo[3,4-b]pyridin-7-ylamine]	0.61
Cc1nc2nonc2c(N)c1Cc1cccc(Br)n1 [Example 7, 6-(6-Bromo-pyridin-2-ylmethyl)-5-methyl-[1,2,5]oxadiazolo[3,4-b]pyridin-7-ylamine]	0.95
Cc1nc2nonc2c(N)c1Cc1ccc(C(F)F)cn1 [Example 9, 6-(5-Difluoromethyl-pyridin-2-ylmethyl)-5-methyl-[1,2,5]oxadiazolo[3,4-b]pyridin-7-ylamine]	0.44
COC(=O)Cc1ccc(Cc2c(C)nc3nonc3c2N)nc1 [Example 10, [6-(7-Amino-5-methyl-[1,2,5]oxadiazolo[3,4-b]pyridin-6-ylmethyl)-pyridin-3-yl]-acetic Acid Methyl Ester]	13
Cc1nc2nonc2c(N)c1Cc1ccc(F)cn1 [Example 12, 6-(5-Fluoro-pyridin-2-ylmethyl)-5-methyl-[1,2,5]oxadiazolo[3,4-b]pyridin-7-ylamine]	6.5
Cc1nc2nonc2c(N)c1Cc1cccc(F)n1 [Example 13, 6-(6-Fluoro-pyridin-2-ylmethyl)-5-methyl-[1,2,5]oxadiazolo[3,4-b]pyridin-7-ylamine]	4.4
Cc1nc2nonc2c(N)c1Cc1ccc(OC(F)F)cn1 [Example 14, 6-(5-Difluoromethoxy-pyridin-2-ylmethyl)-5-methyl-[1,2,5]oxadiazolo[3,4-b]pyridin-7-ylamine]	0.67
Cc1nc2nonc2c(N)c1Cc1ccc(F)c(C#N)n1 [Example 25, 6-(7-Amino-5-methyl-[1,2,5]oxadiazolo[3,4-b]pyridin-6-ylmethyl)-3-fluoro-pyridine-2-carbonitrile]	4.4
Cc1nc2nonc2c(N)c1Cc1cc(C(F)(F)F)ccn1 [Example 26, 5-Methyl-6-(4-trifluoromethyl-pyridin-2-ylmethyl)-[1,2,5]oxadiazolo[3,4-b]pyridin-7-ylamine]	8.8
Cc1nc2nonc2c(N)c1Cc1cc(C#N)ccn1 [Example 28, 2-(7-Amino-5-methyl-[1,2,5]oxadiazolo[3,4-b]pyridin-6-ylmethyl)-isonicotinonitrile]	48
Cc1nc2nonc2c(N)c1Cc1cc(C(N)=O)ccn1 [Example 29, 2-(7-Amino-5-methyl-[1,2,5]oxadiazolo[3,4-b]pyridin-6-ylmethyl)-isonicotinamide]	16
Cc1nc2nonc2c(N)c1Cc1ncc(Cl)cn1 [Example 30, 6-(5-Chloro-pyrimidin-2-ylmethyl)-5-methyl-[1,2,5]oxadiazolo[3,4-b]pyridin-7-ylamine]	2.7
Cc1nc2nonc2c(N)c1Cc1nccc(C(F)(F)F)n1 [Example 34, 5-Methyl-6-(4-trifluoromethyl-pyrimidin-2-ylmethyl)-[1,2,5]oxadiazolo[3,4-b]pyridin-7-ylamine]	3.2
Cc1nc2nonc2c(N)c1Cc1ncc(C(F)(F)F)cn1 [Example 35, 5-methyl-6-[5-(trifluoromethyl)pyrimidin-2-yl]methyl-[1,2,5]oxadiazolo[3,4-b]pyridin-7-amine]	1.8
Cc1nc2nonc2c(N)c1Cc1cc(C(F)(F)F)cc(C#N)n1 [Example 36, 6-(7-amino-5-methyl-[1,2,5]oxadiazolo[3,4-b]pyridin-6-ylmethyl)-4-(trifluoromethyl)pyridine-2-carbonitrile]	6.9
Cc1nc2nonc2c(N)c1Cc1cc(Cl)cc(C#N)n1 [Example 38, 6-(7-amino-5-methyl-[1,2,5]oxadiazolo[3,4-b]pyridin-6-ylmethyl)-4-chloropyridine-2-carbonitrile]	2.6
Cc1nc2nonc2c(N)c1Cc1ccc(OC2CC2)cn1 [Example 41, 6-[(5-cyclopropoxypyridin-2-yl)methyl]-5-methyl-[1,2,5]oxadiazolo[3,4-b]pyridin-7-amine]	1.2
Cc1nc2nonc2c(N)c1Cc1ncc(C#N)c(N)n1 [Example 45, 4-amino-2-(7-amino-5-methyl-[1,2,5]oxadiazolo[3,4-b]pyridin-6-ylmethyl)pyrimidine-5-carbonitrile]	1.2

The next compounds have a lower IC50 than those just listed; values first:

IC50 [nM]	Compound
0.24	Cc1nc2nonc2c(N)c1Cc1ccc(Br)cn1 [Example 5, 6-(5-Bromo-pyridin-2-ylmethyl)-5-methyl-[1,2,5]oxadiazolo[3,4-b]pyridin-7-ylamine]
0.42	Cc1nc2nonc2c(N)c1Cc1ccc(Cl)cn1 [Example 8, 6-(5-Chloro-pyridin-2-ylmethyl)-5-methyl-[1,2,5]oxadiazolo[3,4-b]pyridin-7-ylamine]
0.13	Cc1nc2nonc2c(N)c1Cc1ccc(C(C)(F)F)cn1 [Example 11, 6-[5-(1,1-Difluoro-ethyl)-pyridin-2-ylmethyl]-5-methyl-[1,2,5]oxadiazolo[3,4-b]pyridin-7-ylamine]
0.038	Cc1nc2nonc2c(N)c1Cc1ccc(OC(F)F)c(Br)n1 [Example 15, 6-(6-Bromo-5-difluoromethoxy-pyridin-2-ylmethyl)-5-methyl-[1,2,5]oxadiazolo[3,4-b]pyridin-7-ylamine]
0.28	CSc1cccc(Cc2c(C)nc3nonc3c2N)n1 [Example 16, 5-Methyl-6-(6-methylsulfanyl-pyridin-2-ylmethyl)-[1,2,5]oxadiazolo[3,4-b]pyridin-7-ylamine]
0.22	Cc1nc2nonc2c(N)c1Cc1ccc(OC(F)(F)F)cn1 [Example 17, 5-Methyl-6-(5-trifluoromethoxy-pyridin-2-ylmethyl)-[1,2,5]oxadiazolo[3,4-b]pyridin-7-ylamine]
0.32	Cc1nc2nonc2c(N)c1Cc1ccc2c(n1)OCCO2 [Example 18, 6-(2,3-Dihydro-[1,4]dioxino[2,3-b]pyridin-6-ylmethyl)-5-methyl-[1,2,5]oxadiazolo[3,4-b]pyridin-7-ylamine]
0.17	Cc1nc2nonc2c(N)c1Cc1cc(Cl)c(C(F)(F)F)cn1 [Example 20, 6-(4-Chloro-5-trifluoromethyl-pyridin-2-ylmethyl)-5-methyl-[1,2,5]oxadiazolo[3,4-b]pyridin-7-ylamine]
0.12	Cc1nc2nonc2c(N)c1Cc1ccc(C#N)c(Cl)n1 [Example 24, 6-(7-Amino-5-methyl-[1,2,5]oxadiazolo[3,4-b]pyridin-6-ylmethyl)-2-chloro-nicotinonitrile]
0.3	Cc1nc2nonc2c(N)c1Cc1ccc(OC(F)(F)F)c(C#N)n1 [Example 33, 6-(7-Amino-5-methyl-[1,2,5]oxadiazolo[3,4-b]pyridin-6-ylmethyl)-3-trifluoromethoxy-pyridine-2-carbonitrile]
0.18	Cc1nc2nonc2c(N)c1Cc1ccc(C2CC2)cn1 [Example 39, 6-[(5-cyclopropylpyridin-2-yl)methyl]-5-methyl-[1,2,5]oxadiazolo[3,4-b]pyridin-7-amine]
0.073	Cc1nc2nonc2c(N)c1Cc1ccc(C2CC2)c(C#N)n1 [Example 42, 6-(7-amino-5-methyl-[1,2,5]oxadiazolo[3,4-b]pyridin-6-ylmethyl)-3-cyclopropylpyridine-2-carbonitrile]
0.37	Cc1nc2nonc2c(N)c1Cc1ccc(C#N)c(C2CC2)n1 [Example 43, 6-(7-amino-5-methyl-[1,2,5]oxadiazolo[3,4-b]pyridin-6-ylmethyl)-2-cyclopropylpyridine-3-carbonitrile]
0.17	CSc1ccc(Cc2c(C)nc3nonc3c2N)nc1 [Example 44, 5-Methyl-6-(5-methylsulfanyl-pyridin-2-ylmethyl)-[1,2,5]oxadiazolo[3,4-b]pyridin-7-ylamine]
